# Laboratory results taken from patent publication US12501902B2, “Compositions and methods relating to insecticides” (priority 2019, dated 2025).
# System: Aedes aegypti mosquitoes
# Type: in vivo
# Details: for Synergism of the insecticide by Cha Plu (SR or words): Cha Plu at 4 μg/female; for LD50: Table 1, topical 0.2 μL, mortality at 24 hr, Cha Plu 4 μg/female where combined; for Synergism of NP by Cha Plu constituent: Table 2, 2 ug/female
# From the text: Aedes aegypti mosquitoes of the insecticide susceptible Orlando strain and the pyrethroid-resistant Puerto Rico strain were reared using standard protocols and provided by the United States Department of Agriculture—Center of Medical, Agricultural, and Veterinary Entomology (Gainesville, FL). Mosquitoes were aspirated from colony cages raised from pupae and anesthetized on ice. […] Ten mosquitoes were used per concentration and at least three different biological cohorts were used in the analysis. Knockdown (defined as inability to fly or maintain posture) was recorded at 1 hr or other time points post application (depending on the experiment), whereas mortality (defined as no movement—ataxia) was recorded at 24 hr. […] SAS 9.4 was used to calculate the LD50 values using a PROC PROBIT model with Abbott's correction to account for any control mortality.
Compound,Synergism of the insecticide by Cha Plu (SR or words),LD50 [ng/mg],Synergism of NP by Cha Plu constituent,Synergism of NP (PBO applied at 2 μg/female) [fold]
"CNC(=N[N+](=O)[O-])NCc1cnc(Cl)s1 [Clothianidin, 1-(2-Chloro-1,3-thiazol-5-ylmethyl)-3-methyl-2-nitroguanidine]",strong synergist,4.5,–,–
O=c1cc(-c2ccc(O)cc2)oc2c([C@@H]3O[C@H](CO)[C@@H](O)[C@H](O)[C@H]3O)c(O)cc(O)c12 [Vitexin],–,–,inactive,–
N#Cc1nn(-c2c(Cl)cc(C(F)(F)F)cc2Cl)c(N)c1[S+]([O-])C(F)(F)F (stereo not drawn) [Fipronil],1.02,0.1,–,–
CCOCn1c(-c2ccc(Cl)cc2)c(C#N)c(Br)c1C(F)(F)F [Chlorfenapyr],antagonism,9.9,–,–
C[C@@H]1O[C@@H](OC[C@H]2O[C@@H](Oc3c(-c4ccc(O)c(O)c4)oc4cc(O)cc(O)c4c3=O)[C@H](O)[C@@H](O)[C@@H]2O)[C@H](O)[C@H](O)[C@H]1O [rutin],–,–,more than 3 fold,–
CCCCOCCOCCOCc1cc2c(cc1CCC)OCO2 [PBO],–,–,–,3.8
